Data taken from article PMC8924211 (Nature Communications, 2022).
Residue numbers refer to the chain shown, from its start.

What was measured:
Test in all cases: Calcium assay, HEK293/Gα16 cells, GAL2R mutants
Type in all cases: cell-based
GAL2R mutants [1] = molecular target: T1, GAL2R mutants (Homo sapiens, UniProt O43603, R184A); conditions: GAL2R R1845.35A
T1 construct: expressed in transfected cells; host or cells: HEK293
T1 sequence (O43603 1-387 R184A): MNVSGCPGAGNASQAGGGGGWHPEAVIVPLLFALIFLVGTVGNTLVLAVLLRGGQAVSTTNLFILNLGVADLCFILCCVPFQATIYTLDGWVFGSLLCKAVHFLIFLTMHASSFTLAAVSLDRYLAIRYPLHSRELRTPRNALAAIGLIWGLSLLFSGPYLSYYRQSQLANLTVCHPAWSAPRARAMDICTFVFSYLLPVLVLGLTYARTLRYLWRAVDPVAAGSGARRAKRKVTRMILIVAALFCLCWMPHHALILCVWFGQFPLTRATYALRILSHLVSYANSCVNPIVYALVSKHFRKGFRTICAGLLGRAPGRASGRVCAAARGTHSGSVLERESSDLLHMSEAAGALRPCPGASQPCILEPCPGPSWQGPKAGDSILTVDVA

GAL2R mutants [2] = molecular target: T2, GAL2R mutants (Homo sapiens, UniProt O43603, Y164A); conditions: GAL2R Y1644.64A
T2 construct: expressed in transfected cells; host or cells: HEK293
T2 sequence (O43603 1-387 Y164A): T1 sequence (O43603 1-387 R184A) with Y164A, A184R

GAL2R mutants [3] = molecular target: T3, GAL2R mutants (Homo sapiens, UniProt O43603, I85A); conditions: GAL2R I852.64A
T3 construct: expressed in transfected cells; host or cells: HEK293
T3 sequence (O43603 1-387 I85A): T1 sequence (O43603 1-387 R184A) with I85A, A184R

GAL2R mutants [4] = molecular target: T4, GAL2R mutants (Homo sapiens, UniProt O43603, L169A); conditions: GAL2R L169ECL2A
T4 construct: expressed in transfected cells; host or cells: HEK293
T4 sequence (O43603 1-387 L169A): T1 sequence (O43603 1-387 R184A) with L169A, A184R

GAL2R mutants [5] = molecular target: T5, GAL2R mutants (Homo sapiens, UniProt O43603, Y271A); conditions: GAL2R Y2717.32A
T5 construct: expressed in transfected cells; host or cells: HEK293
T5 sequence (O43603 1-387 Y271A): T1 sequence (O43603 1-387 R184A) with A184R, Y271A

[6] = response of 100 μM spexin compared to WT, mean ± S.E.M.
[7] = response of 100 μM spexin compared to WT

spexin
Emax (GAL2R mutants [1]; [6]): 32.36±1.6% | EC50 (GAL2R mutants [1]; spexin, replicate 1): 0.3712 µM | Emax (GAL2R mutants [1]; spexin, replicate 1): 29.7886% | EC50 (GAL2R mutants [1]; spexin, replicate 2): 0.9731 µM | Emax (GAL2R mutants [1]; spexin, replicate 2): 32.1089% | EC50 (GAL2R mutants [1]; spexin, replicate 3): 10.58 µM | Emax (GAL2R mutants [1]; spexin, replicate 3): 35.1728% | Emax (GAL2R mutants [2]; [7]): NR (NR, no response, refers to response < 10% compared to WT receptor (spexin at 100 μM)) | Emax (GAL2R mutants [2]; spexin, replicate 1): no response | Emax (GAL2R mutants [2]; spexin, replicate 2): no response | Emax (GAL2R mutants [2]; spexin, replicate 3): no response | Emax (GAL2R mutants [3]; [7]): NR (NR, no response, refers to response < 10% compared to WT receptor (spexin at 100 μM)) | Emax (GAL2R mutants [3]; spexin, replicate 1): no response | Emax (GAL2R mutants [3]; spexin, replicate 2): no response | Emax (GAL2R mutants [3]; spexin, replicate 3): no response | Emax (GAL2R mutants [4]; [6]): 94.58±11.1% | EC50 (GAL2R mutants [4]; spexin, replicate 1): 7.173 µM | Emax (GAL2R mutants [4]; spexin, replicate 1): 77.1819% | EC50 (GAL2R mutants [4]; spexin, replicate 2): 5.137 µM | Emax (GAL2R mutants [4]; spexin, replicate 2): 91.205% | Emax (GAL2R mutants [4]; spexin, replicate 3): 115.35% | Emax (GAL2R mutants [5]; [6]): 22.23±2.2% | EC50 (GAL2R mutants [5]; spexin, replicate 1): 5.958 µM | Emax (GAL2R mutants [5]; spexin, replicate 1): 23.9745% | EC50 (GAL2R mutants [5]; spexin, replicate 2): 1.581 µM | Emax (GAL2R mutants [5]; spexin, replicate 2): 17.9395% | EC50 (GAL2R mutants [5]; spexin, replicate 3): 0.7518 µM | Emax (GAL2R mutants [5]; spexin, replicate 3): 24.7776%
